# Experimental data published in ChEMBL document CHEMBL4330071 (Eur J Med Chem, 2019).
# pIC50, pKd: −log10 of the molar value.
# How the values were obtained:
# [1] = target: Mitogen-activated protein kinase kinase kinase 1 (Homo sapiens) (UniProt Q13233); test: Inhibition of human MEKK1 assessed as residual activity at 10 uM using MBP as substrate preincubated for 20 mins followed by [gamma-33P]-ATP addition and measured after 120 mins by Hotspot assay relative to control
# MV4-11 [2] = test: Induction of apoptosis in human MV4-11 cells assessed as viable cells at 0.2 uM after 24 hrs by Annexin V-FITC/propidium iodide staining based flow cytometric analysis (reference value: 95.19%); type: functional; details: MV4-11, 24 h, read-out: Activity
# MOLM-13 = test: Growth inhibition of human MOLM13 cells harboring FLT3 ITD mutant at 10 uM after 72 hrs by CellTiter-Glo assay relative to control; type: functional; details: MOLM-13, 72 h, read-out: GI
# [3] = target: RAC-alpha serine/threonine-protein kinase (Homo sapiens) (UniProt P31749); test: Inhibition of human AKT1 assessed as residual activity at 10 uM using KGSGSGRPRTSSFAEG as substrate preincubated for 20 mins followed by [gamma-33P]-ATP addition and measured after 120 mins by Hotspot assay relative to control
# MV4-11 [4] = test: Induction of apoptosis in human MV4-11 cells assessed as late apoptotic cells at 0.5 uM after 24 hrs by Annexin V-FITC/propidium iodide staining based flow cytometric analysis (reference value: 1.42%); type: functional
# [5] = target: Tyrosine-protein kinase ABL1 (Homo sapiens, UniProt P00519, T315I); test: Binding affinity to human non-phosphorylated ABL1 T315I mutant (S229 to K512 residues) expressed in mammalian expression system after 60 mins by Kinomescan method
# MV4-11 [6] = test: Induction of apoptosis in human MV4-11 cells assessed as early apoptotic cells at 0.2 uM after 24 hrs by Annexin V-FITC/propidium iodide staining based flow cytometric analysis (reference value: 3.39%); type: functional
# [7] = Intrinsic clearance in human liver microsomes assessed per mg protein at 1 uM after 5 to 60 mins in presence of NADPH by LC-MS/MS analysis; type: ADME, Microsome; details: read-out: CLH
# MV4-11 [8] = test: Induction of apoptosis in human MV4-11 cells assessed as necrotic cells at 0.05 uM after 24 hrs by Annexin V-FITC/propidium iodide staining based flow cytometric analysis (reference value: 0%); type: functional
# [9] = target: CDK2/Cyclin A2 (Homo sapiens) (UniProt P24941+P20248); test: Inhibition of human CDK2/cyclin-A assessed as residual activity at 10 uM using histone H1 as substrate preincubated for 20 mins followed by [gamma-33P]-ATP addition and measured after 120 mins by Hotspot assay relative to control; type: protein-complex assay
# MV4-11 [10] = test: Induction of apoptosis in human MV4-11 cells assessed as viable cells at 0.1 uM after 24 hrs by Annexin V-FITC/propidium iodide staining based flow cytometric analysis (reference value: 95.19%); type: functional; details: MV4-11, 24 h, read-out: Activity
# [11] = target: Aurora kinase A (Homo sapiens) (UniProt O14965); test: Inhibition of human Aurora A assessed as residual activity at 10 uM using [H-LRRASLG] as substrate preincubated for 20 mins followed by [gamma-33P]-ATP addition and measured after 120 mins by Hotspot assay relative to control
# MV4-11 [12] = test: Induction of apoptosis in human MV4-11 cells assessed as late apoptotic cells at 0.2 uM after 24 hrs by Annexin V-FITC/propidium iodide staining based flow cytometric analysis (reference value: 1.42%); type: functional
# MV4-11 [13] = test: Induction of apoptosis in human MV4-11 cells assessed as viable cells at 0.5 uM after 24 hrs by Annexin V-FITC/propidium iodide staining based flow cytometric analysis (reference value: 95.19%); type: functional; details: MV4-11, 24 h, read-out: Activity
# [14] = target: Cyclin-dependent kinase 5/CDK5 activator 1 (Homo sapiens) (UniProt Q00535+Q15078); test: Inhibition of human CDK5/p25 assessed as residual activity at 10 uM using histone H1 as substrate preincubated for 20 mins followed by [gamma-33P]-ATP addition and measured after 120 mins by Hotspot assay relative to control; type: protein-complex assay
# Sequence of Cyclin-dependent kinase 5/CDK5 activator 1 (Homo sapiens) (Q00535 whole entry): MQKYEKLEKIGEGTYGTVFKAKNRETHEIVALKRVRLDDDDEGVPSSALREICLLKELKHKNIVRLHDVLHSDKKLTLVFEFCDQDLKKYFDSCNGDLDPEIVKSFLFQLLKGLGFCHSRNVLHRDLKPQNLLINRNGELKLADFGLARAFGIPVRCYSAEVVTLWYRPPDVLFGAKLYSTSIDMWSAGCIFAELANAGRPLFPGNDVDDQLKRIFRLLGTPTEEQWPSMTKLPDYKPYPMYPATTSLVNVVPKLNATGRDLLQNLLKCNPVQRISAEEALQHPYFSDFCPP
# Sequence of Cyclin-dependent kinase 5/CDK5 activator 1 (Homo sapiens) (Q15078 99-307 partner limits assumed): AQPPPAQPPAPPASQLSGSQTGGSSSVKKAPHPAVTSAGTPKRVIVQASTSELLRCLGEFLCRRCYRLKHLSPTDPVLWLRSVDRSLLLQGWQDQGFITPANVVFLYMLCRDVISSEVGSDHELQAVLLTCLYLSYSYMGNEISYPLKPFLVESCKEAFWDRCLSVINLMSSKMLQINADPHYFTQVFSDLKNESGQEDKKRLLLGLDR
# [15] = target: Calcium/calmodulin-dependent protein kinase type 1 (Homo sapiens) (UniProt Q14012); test: Inhibition of human CAMK1A assessed as residual activity at 10 uM using KKALRRQETVDAL as substrate preincubated for 20 mins followed by [gamma-33P]-ATP addition and measured after 120 mins by Hotspot assay relative to control
# [16] = target: Discoidin domain-containing receptor 2 (Homo sapiens) (UniProt Q16832); test: Inhibition of human DDR2 assessed as residual activity at 10 uM using KKSRGDYMTMQIG as substrate preincubated for 20 mins followed by [gamma-33P]-ATP addition and measured after 120 mins by Hotspot assay relative to control
# [17] = target: Macrophage colony-stimulating factor 1 receptor (Homo sapiens, UniProt P07333); test: Inhibition of human FMS assessed as residual activity at 10 uM using poly[Glu:Tyr] (4:1) as substrate preincubated for 20 mins followed by [gamma-33P]-ATP addition and measured after 120 mins by Hotspot assay relative to control
# Sequence of Macrophage colony-stimulating factor 1 receptor (P07333 whole entry): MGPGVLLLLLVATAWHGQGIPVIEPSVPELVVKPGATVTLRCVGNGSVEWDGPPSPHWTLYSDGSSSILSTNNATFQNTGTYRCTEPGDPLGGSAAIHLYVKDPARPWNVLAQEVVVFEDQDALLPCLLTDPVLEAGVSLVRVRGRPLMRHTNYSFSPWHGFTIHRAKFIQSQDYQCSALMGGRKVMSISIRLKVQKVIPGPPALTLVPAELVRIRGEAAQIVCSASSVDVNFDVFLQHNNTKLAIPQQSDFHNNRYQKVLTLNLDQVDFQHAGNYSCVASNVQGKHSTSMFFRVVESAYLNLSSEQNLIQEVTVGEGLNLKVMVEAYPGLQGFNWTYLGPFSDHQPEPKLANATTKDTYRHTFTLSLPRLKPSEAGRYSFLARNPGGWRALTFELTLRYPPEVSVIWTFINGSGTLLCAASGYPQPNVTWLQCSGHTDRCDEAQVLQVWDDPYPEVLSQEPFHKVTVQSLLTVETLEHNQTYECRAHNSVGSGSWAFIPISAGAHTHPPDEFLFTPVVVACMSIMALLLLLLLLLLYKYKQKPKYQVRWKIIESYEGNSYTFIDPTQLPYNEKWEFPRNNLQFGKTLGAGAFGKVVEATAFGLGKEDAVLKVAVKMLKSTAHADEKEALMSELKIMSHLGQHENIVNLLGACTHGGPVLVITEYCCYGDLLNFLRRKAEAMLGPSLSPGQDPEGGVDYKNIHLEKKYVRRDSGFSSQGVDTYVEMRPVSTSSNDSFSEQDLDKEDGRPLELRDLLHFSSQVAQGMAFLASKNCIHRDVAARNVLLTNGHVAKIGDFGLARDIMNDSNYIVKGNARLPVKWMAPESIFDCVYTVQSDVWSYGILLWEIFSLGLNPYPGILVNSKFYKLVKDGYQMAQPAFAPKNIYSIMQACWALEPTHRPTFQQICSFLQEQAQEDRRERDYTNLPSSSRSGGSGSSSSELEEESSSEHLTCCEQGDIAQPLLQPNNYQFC
# MV4-11 [18] = test: Induction of apoptosis in human MV4-11 cells assessed as necrotic cells at 0.1 uM after 24 hrs by Annexin V-FITC/propidium iodide staining based flow cytometric analysis (reference value: 0%); type: functional
# MV4-11 [19] = test: Induction of apoptosis in human MV4-11 cells assessed as necrotic cells at 1 uM after 24 hrs by Annexin V-FITC/propidium iodide staining based flow cytometric analysis (reference value: 0%); type: functional
# [20] = target: Fibroblast growth factor receptor 1 (Homo sapiens, UniProt P11362); test: Inhibition of human FGFR1 using KKKSPGEYVNIEFG as substrate preincubated for 20 mins followed by [gamma-33P]-ATP addition and measured after 120 mins by Hotspot assay
# [21] = target: Mast/stem cell growth factor receptor Kit (Homo sapiens, UniProt P10721); test: Binding affinity to wild-type human partial length KIT (I571 to D952 residues) expressed in bacterial expression system after 60 mins by Kinomescan method
# HuT78 = test: Growth inhibition of human HUT78 cells at 10 uM after 72 hrs by CellTiter-Glo assay relative to control; type: functional; details: HuT78, 72 h, read-out: GI
# [22] = target: CDC7/DBF4 (Cell division cycle 7-related protein kinase/Activator of S phase kinase) (Homo sapiens) (UniProt Q9UBU7+O00311); test: Inhibition of human CDC7/DBF4 assessed as residual activity at 10 uM using KTFCGTPEYLAPEVRREPRILSEEEQEMFRDFDYIADWC as substrate preincubated for 20 mins followed by [gamma-33P]-ATP addition and measured after 120 mins by Hotspot assay relative to control; type: protein-complex assay
# Sequence of CDC7/DBF4 (Cell division cycle 7-related protein kinase/Activator of S phase kinase) (Homo sapiens) (O00311 whole entry, looked up): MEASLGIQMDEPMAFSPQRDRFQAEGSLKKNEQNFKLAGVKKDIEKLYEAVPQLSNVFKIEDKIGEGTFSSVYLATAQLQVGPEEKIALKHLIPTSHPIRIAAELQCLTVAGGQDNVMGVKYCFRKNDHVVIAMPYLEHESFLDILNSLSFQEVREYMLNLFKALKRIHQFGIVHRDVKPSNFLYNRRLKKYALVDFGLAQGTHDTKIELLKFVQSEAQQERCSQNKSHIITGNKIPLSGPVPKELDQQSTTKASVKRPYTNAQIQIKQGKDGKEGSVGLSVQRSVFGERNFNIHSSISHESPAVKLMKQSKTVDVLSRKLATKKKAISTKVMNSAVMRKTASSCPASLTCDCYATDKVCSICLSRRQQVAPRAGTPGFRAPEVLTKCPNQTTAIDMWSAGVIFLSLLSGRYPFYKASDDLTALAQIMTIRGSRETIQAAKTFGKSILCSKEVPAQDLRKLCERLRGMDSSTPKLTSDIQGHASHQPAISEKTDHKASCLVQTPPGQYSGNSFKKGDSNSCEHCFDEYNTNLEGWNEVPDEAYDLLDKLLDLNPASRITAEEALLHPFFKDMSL
# Sequence of CDC7/DBF4 (Cell division cycle 7-related protein kinase/Activator of S phase kinase) (Homo sapiens) (Q9UBU7 whole entry, looked up): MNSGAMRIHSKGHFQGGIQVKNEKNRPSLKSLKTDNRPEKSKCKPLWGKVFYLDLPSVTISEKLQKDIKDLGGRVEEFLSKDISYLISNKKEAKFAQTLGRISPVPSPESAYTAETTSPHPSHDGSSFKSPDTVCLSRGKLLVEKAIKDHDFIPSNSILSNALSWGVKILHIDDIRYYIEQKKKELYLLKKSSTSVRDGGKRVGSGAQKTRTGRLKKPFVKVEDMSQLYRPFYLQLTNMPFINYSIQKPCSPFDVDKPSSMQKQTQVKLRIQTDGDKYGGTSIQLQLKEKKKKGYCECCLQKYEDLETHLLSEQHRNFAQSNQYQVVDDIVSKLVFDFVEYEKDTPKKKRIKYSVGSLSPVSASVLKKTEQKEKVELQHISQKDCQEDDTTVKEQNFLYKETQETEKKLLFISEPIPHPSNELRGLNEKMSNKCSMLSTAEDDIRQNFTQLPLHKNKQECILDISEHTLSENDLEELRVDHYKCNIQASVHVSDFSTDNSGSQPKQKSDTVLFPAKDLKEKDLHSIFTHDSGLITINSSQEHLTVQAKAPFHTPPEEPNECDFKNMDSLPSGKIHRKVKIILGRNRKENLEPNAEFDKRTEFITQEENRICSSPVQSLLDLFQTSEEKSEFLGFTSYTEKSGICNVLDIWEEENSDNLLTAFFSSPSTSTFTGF
# MV4-11 [23] = test: Cytotoxicity against human MV4-11 cells at 1 uM after 72 hrs by MTT assay; type: cell-based; details: mv4-11, 72 h
# PBMC = test: Cytotoxicity against human PBMC at 1 uM after 72 hrs by MTT assay; type: cell-based
# [24] = target: Proto-oncogene tyrosine-protein kinase Src (Homo sapiens, UniProt P12931); test: Inhibition of human c-SRC assessed as residual activity at 10 uM using poly[Glu:Tyr] (4:1) as substrate preincubated for 20 mins followed by [gamma-33P]-ATP addition and measured after 120 mins by Hotspot assay relative to control
# Sequence of Proto-oncogene tyrosine-protein kinase Src (P12931 2-536 limits assumed): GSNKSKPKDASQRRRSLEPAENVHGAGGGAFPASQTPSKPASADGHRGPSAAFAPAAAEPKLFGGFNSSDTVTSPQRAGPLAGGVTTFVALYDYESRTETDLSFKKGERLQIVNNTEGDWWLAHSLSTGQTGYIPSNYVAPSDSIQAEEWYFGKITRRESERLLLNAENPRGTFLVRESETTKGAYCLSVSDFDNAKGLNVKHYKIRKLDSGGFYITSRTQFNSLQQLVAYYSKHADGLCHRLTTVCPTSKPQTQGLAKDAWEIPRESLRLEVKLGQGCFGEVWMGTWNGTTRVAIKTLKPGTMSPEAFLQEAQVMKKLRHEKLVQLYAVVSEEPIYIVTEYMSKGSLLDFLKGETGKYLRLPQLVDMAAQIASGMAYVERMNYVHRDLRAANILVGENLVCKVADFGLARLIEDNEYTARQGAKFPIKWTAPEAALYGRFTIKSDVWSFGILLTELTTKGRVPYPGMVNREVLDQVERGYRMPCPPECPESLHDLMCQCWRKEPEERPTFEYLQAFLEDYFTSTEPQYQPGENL
# Sequence of Mitogen-activated protein kinase kinase kinase 1 (Homo sapiens) (Q13233 whole entry): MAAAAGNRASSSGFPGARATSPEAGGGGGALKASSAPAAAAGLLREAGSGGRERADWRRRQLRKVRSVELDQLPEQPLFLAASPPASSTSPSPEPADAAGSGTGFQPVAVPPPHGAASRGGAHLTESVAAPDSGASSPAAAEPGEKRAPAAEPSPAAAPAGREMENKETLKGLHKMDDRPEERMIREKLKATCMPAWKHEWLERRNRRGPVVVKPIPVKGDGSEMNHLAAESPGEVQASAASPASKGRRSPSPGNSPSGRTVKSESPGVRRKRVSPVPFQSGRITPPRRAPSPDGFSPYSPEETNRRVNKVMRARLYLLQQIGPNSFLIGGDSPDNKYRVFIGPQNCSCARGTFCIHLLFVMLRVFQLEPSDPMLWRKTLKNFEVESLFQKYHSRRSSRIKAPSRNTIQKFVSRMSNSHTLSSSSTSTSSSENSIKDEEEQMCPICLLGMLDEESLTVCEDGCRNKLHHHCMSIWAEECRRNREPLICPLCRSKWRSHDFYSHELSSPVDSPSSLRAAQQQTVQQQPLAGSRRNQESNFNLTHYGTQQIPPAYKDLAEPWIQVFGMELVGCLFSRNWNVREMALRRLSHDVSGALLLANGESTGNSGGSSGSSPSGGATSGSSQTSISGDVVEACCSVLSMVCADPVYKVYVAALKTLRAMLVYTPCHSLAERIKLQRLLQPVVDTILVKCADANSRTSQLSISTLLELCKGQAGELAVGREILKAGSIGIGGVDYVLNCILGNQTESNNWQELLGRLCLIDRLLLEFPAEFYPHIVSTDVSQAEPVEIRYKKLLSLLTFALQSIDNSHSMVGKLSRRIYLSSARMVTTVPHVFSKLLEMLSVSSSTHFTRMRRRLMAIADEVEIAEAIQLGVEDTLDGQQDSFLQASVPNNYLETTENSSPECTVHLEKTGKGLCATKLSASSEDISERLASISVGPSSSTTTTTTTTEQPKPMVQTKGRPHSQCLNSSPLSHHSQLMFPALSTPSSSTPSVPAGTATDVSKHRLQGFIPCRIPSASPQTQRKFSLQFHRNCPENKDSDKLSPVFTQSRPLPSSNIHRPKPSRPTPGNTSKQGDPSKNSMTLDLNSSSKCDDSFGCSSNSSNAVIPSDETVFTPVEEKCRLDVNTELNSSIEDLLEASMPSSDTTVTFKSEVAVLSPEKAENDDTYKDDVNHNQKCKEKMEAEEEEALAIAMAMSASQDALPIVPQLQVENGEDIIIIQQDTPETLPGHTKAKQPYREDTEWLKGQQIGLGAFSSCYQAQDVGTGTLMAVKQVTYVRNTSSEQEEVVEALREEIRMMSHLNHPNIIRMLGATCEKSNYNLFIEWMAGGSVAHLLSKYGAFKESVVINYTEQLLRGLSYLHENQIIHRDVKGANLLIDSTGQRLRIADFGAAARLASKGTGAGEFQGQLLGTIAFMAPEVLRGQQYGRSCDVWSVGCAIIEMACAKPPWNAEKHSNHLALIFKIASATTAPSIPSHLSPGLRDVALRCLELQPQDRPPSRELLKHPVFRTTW
structure (smiles),measurement,setting,value
CN1CCC(Nc2ccc(C(=O)Nc3cc(-c4cc(C#N)cs4)n[nH]3)cc2)CC1,Activity,[1],66.2%
same,viability at 0.2 µM,MV4-11 [2],48.8%
same,inhibition of growth at 10 µM,MOLM-13,92.1%
same,Activity,[3],90.7%
same,Activity,MV4-11 [4],26.68%
same,pKd,[5],6.24
same,Activity,MV4-11 [6],25.33%
same,microsomal CLint at 1 µM,[7],22.4 µL/min/mg
same,Activity,MV4-11 [8],4.51%
same,Activity,[9],66.8%
same,viability at 0.1 µM,MV4-11 [10],56.8%
same,Activity,[11],58.4%
same,Activity,MV4-11 [12],21.77%
same,viability at 0.5 µM,MV4-11 [13],39.8%
same,Activity,[14],60.4%
same,Activity,[15],48.5%
same,Activity,[16],20.6%
same,Activity,[17],4.66%
same,Activity,MV4-11 [18],3%
same,Activity,MV4-11 [19],6.35%
same,pIC50,[20],6.02
same,pKd,[21],8.66
same,inhibition of growth at 10 µM,HuT78,3.9%
same,Activity,[22],101%
same,Activity,MV4-11 [23],Non-Toxic
same,Activity,PBMC,Non-Toxic
same,Activity,[24],17.9%
